Reference: patent US10800754B2, “Heterocyclic amide compound” (TAKEDA PHARMACEUTICAL COMPANY LIMITED, priority 2016, dated 2020)

molecular target: T1, human PRS protein (Homo sapiens, UniProt P07814); assay: PRS inhibitory activity (ATP/[32P]pyrophosphate exchange enzyme reaction); type: biochemical; details: 300 nM test compound; recombinant human PRS (EPRS 998-1512); read-out: inhibitory rate (%) of PRS
T1 construct: to construct His-Avi-hEPRS (998-1512) expression plasmid; His tag (N); Avi tag (N); TEV cleavage site (ENLYFQ/GS, encoded by forward primer hEPRS-TEV-NheF) (N); made in house; host or cells: E. coli BL21(DE3)
T1 sequence (P07814 998-1512): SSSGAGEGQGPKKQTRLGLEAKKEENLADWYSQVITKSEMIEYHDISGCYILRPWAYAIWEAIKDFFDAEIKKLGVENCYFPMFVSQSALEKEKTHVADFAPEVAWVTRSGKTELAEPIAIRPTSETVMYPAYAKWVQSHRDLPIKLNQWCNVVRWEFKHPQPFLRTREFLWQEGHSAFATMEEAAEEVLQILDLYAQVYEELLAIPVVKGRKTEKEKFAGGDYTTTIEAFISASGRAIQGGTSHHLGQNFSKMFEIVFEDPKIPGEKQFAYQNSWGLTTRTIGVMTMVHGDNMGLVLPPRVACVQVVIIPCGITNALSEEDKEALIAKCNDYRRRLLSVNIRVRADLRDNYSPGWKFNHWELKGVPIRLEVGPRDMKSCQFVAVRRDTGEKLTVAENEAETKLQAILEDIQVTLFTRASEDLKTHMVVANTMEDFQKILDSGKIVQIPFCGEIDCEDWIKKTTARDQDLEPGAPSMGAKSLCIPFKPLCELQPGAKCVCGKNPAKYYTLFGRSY
Procedure: The PRS inhibitory activity of the compounds of the present invention was evaluated by the following method.
An expression plasmid of Catalytic Domain of human EPRS was obtained by PCR using human skeletal muscle cDNA Library (Takara Bio Inc.) as a template and 2 kinds of Primers 5′-[…]-3′ (hEPRS-TEV-NheF) (SEQ ID NO: 1) and 5′-[…]-3′ (hEPRS-St-Not-R) (SEQ ID NO: 2). PCR was performed using PrimeStar GXL DNA Polymerase (Takara Bio Inc.) and included (1) 98° C., 1 min, (2) cycles of 98° C., 10 sec, 65° C., 10 sec, 72° C., 1 min, and (3) reaction at 72° C., 1 min. This was cleaved with Nhe I and Not I (Takara Bio Inc.) and inserted using Ligation High (TOYOBO CO., LTD.) into the Nhe I/Not I site of pET21a (Novagen) with His-Avitag inserted thereinto. This was introduced into ECOS JM109 (NIPPON GENE CO., LTD.) to construct His-Avi-hEPRS (998-1512) expression plasmid.
Recombinant human PRS protein was prepared by transforming the His-Avi-hEPRS (998-1512) expression plasmid prepared above into ECOS Competent E. coli BL21(DE3) (NIPPON GENE CO., LTD.). Escherichia coli obtained by transformation was inoculated into 300 mL of LB medium (1% peptone, 0.5% yeast extract, 0.5% sodium chloride, 0.01% ampicillin) and cultured at 30° C. for 16 hr. The obtained culture medium was transferred into a jar culture tank charged with 6 L of the main fermentation medium (0.3% potassium dihydrogen phosphate, 0.6% disodium hydrogen phosphate, 0.1% ammonium chloride, 0.05% sodium chloride, 0.024% magnesium sulfate, 0.02% NEWPOL LB-625, 1.5% sorbitol, 1.5% casamino acid, 0.5% yeast extract, 0.01% ampicillin) and culturing was started at 37° C., quantity of airflow 5 L/min, stirring rotating speed 400 rpm. At the time point when the turbidity of the culture medium reached about 550 Klett units, the culture temperature was lowered to 16° C., isopropyl-β-D-thiogalactopyranoside (IPTG) was added to the final concentration 0.1 mM, and culturing was performed for another 16 hr to induce expression of human PRS. After completion of culturing, the culture medium was centrifuged at 5,000 rpm for 10 min. The obtained human PRS expressing Escherichia coli was suspended in a buffer containing 50 mM Tris-HCl (pH 8.0), 150 mM NaCl, 1 mM DTT, 5 U/ml Benzonase, 20 mM Imidazole and sonicated using Sonifier (BRANSON). The homogenate was centrifuged (33,000×G, 60 min, Beckman Coulter), the obtained supernatant was subjected to adsorption by passage through Ni-NTA Superflow (QIAGEN) column equilibrated in advance with 50 mM Tris-HCl (pH 8.0), 300 mM NaCl, 1 mM DTT, and elution was performed with a buffer containing 50 mM Tris-HCl (pH 8.0), 300 mM NaCl, 1 mM DTT, 250 mM Imidazole. Furthermore, gel filtration was performed using […] equilibrated in advance with a buffer containing 50 mM Tris-HCl (pH 8.0), 150 mM NaCl, 1 mM DTT, 10% glycerol to give purified human PRS protein. The protein concentration was measured using BCA Protein Assay Kit (PIERCE) and BSA as the standard.
A test compound was dissolved in 5 μL of an assay buffer (50 mM Tris-HCl (pH 7.5), 20 mM KCl, 1 mM DTT, 0.01% Tween 20) and incubated for 60 min with 5 μL of 40 nM human PRS protein dissolved in the assay buffer containing 40 mM MgCl2. An enzyme reaction of the human PRS protein was started by adding 10 μL of a substrate solution containing 300 μM ATP, 160 μM L-Proline, 400 μM pyrophosphate, [^32P]pyrophosphate (PerkinElmer, Waltham, Mass.) prepared to 1 MBq/mL. After incubation at room temperature for 30 min, the reaction was discontinued by adding 50 μL of discontinuation/washing solution (1M HCl, 200 mM sodium pyrophosphate) to the reaction mixture. The reaction solution was transferred to a filter plate (Merck Millipore, Billerica, Mass.) previously added with 200 μL of charcoal solution (0.5% HCl solution containing 10% charcoal (w/v)). […]

| SMILES | inhibition at 0.3 µM [%] |
| --- | --- |
| Cc1cc(N2CC(C)C(C#N)(C3CC3)C2=O)cc(NC(=O)Cc2ccccc2)n1 (stereo not drawn) [Example 54, N-(4-(3-cyano-3-cyclopropyl-4-methyl-2-oxopyrrolidin-1-yl)-6-methylpyridin-2-yl)-2-phenylacetamide] | 77 |
| Cn1cc(-c2cccc(CC(=O)Nc3cc(N4CC[C@@](C#N)(C5CC5)C4=O)cc(C(F)(F)F)n3)c2)cn1 [Example 61, N-(4-((3S)-3-cyano-3-cyclopropyl-2-oxopyrrolidin-1-yl)-6-(trifluoromethyl)-pyridin-2-yl)-2-(3-(1-methyl-1H-pyrazol-4-yl)phenyl)acetamide] | 84 |
| COc1cc(N2CC[C@@](C#N)(C3CC3)C2=O)cc(NC(=O)Cc2cccc(-c3cnn(C)c3)c2)n1 [Example 62, N-(4-((3S)-3-cyano-3-cyclopropyl-2-oxopyrrolidin-1-yl)-6-methoxypyridin-2-yl)-2-(3-(1-methyl-1H-pyrazol-4-yl)phenyl)acetamide] | 92 |
| N#C[C@@]1(C2CC2)CCN(c2ccnc(NC(=O)Cc3cccc(-c4cnn(CC(N)=O)c4)c3)c2)C1=O [Example 69, 2-(3-(1-(2-amino-2-oxoethyl)-1H-pyrazol-4-yl)phenyl)-N-(4-((3S)-3-cyano-3-cyclopropyl-2-oxopyrrolidin-1-yl)pyridin-2-yl)acetamide] | 99 |
| COC(=O)Cn1cc(-c2cccc(CC(=O)Nc3cc(N4CC[C@@](C#N)(C5CC5)C4=O)ccn3)c2)cn1 [Example 73, methyl (4-(3-(2-((4-((3S)-3-cyano-3-cyclopropyl-2-oxopyrrolidin-1-yl)pyridin-2-yl)amino)-2-oxoethyl)phenyl)-1H-pyrazol-1-yl)acetate] | 99 |
| N#C[C@@]1(C2CC2)CCN(c2ccnc(NC(=O)Cc3cccc(-c4cnn(CC5CCCC5)c4)c3)c2)C1=O [Example 75, N-(4-((3S)-3-cyano-3-cyclopropyl-2-oxopyrrolidin-1-yl)pyridin-2-yl)-2-(3-(1-(cyclopentylmethyl)-1H-pyrazol-4-yl)phenyl)acetamide] | 97 |
| N#C[C@@]1(C2CC2)CCN(c2ccnc(NC(=O)Cc3cccc(-c4cnn(CC5CCCO5)c4)c3)c2)C1=O (stereo partly drawn) [Example 76, N-(4-((3S)-3-cyano-3-cyclopropyl-2-oxopyrrolidin-1-yl)pyridin-2-yl)-2-(3-(1-(tetrahydrofuran-2-ylmethyl)-1H-pyrazol-4-yl)phenyl)acetamide] | 98 |
| N#C[C@@]1(C2CC2)CCN(c2ccnc(NC(=O)Cc3cccc(-c4cnn(CCn5cccn5)c4)c3)c2)C1=O [Example 80, N-(4-((3S)-3-cyano-3-cyclopropyl-2-oxopyrrolidin-1-yl)pyridin-2-yl)-2-(3-(1-(2-(1H-pyrazol-1-yl)ethyl)-1H-pyrazol-4-yl)phenyl)acetamide] | 98 |
| N#C[C@@]1(C2CC2)CCN(c2ccnc(NC(=O)Cc3cccc(-c4cnn(CCn5ccnc5)c4)c3)c2)C1=O [Example 81, N-(4-((3S)-3-cyano-3-cyclopropyl-2-oxopyrrolidin-1-yl)pyridin-2-yl)-2-(3-(1-(2-(1H-imidazol-1-yl)ethyl)-1H-pyrazol-4-yl)phenyl)acetamide] | 97 |

Next, values leading:

| inhibition at 0.3 µM [%] | SMILES |
| --- | --- |
| 92 | N#C[C@@]1(C2CC2)CCN(c2ccnc(NC(=O)Cc3cccc(-c4cnn(CC5CCCCC5)c4)c3)c2)C1=O [Example 82, N-(4-((3S)-3-cyano-3-cyclopropyl-2-oxopyrrolidin-1-yl)pyridin-2-yl)-2-(3-(1-(cyclohexylmethyl)-1H-pyrazol-4-yl)phenyl)acetamide] |
| 96 | COCCOCCn1cc(-c2cccc(CC(=O)Nc3cc(N4CC[C@@](C#N)(C5CC5)C4=O)ccn3)c2)cn1 [Example 86, N-(4-((3S)-3-cyano-3-cyclopropyl-2-oxopyrrolidin-1-yl)pyridin-2-yl)-2-(3-(1-(2-(2-methoxyethoxy)ethyl)-1H-pyrazol-4-yl)phenyl)acetamide] |
| 97 | N#C[C@@]1(C2CC2)CCN(c2ccnc(NC(=O)Cc3cccc(-c4cnn(CCc5ccccc5)c4)c3)c2)C1=O [Example 88, N-(4-((3S)-3-cyano-3-cyclopropyl-2-oxopyrrolidin-1-yl)pyridin-2-yl)-2-(3-(1-(2-phenylethyl)-1H-pyrazol-4-yl)phenyl)acetamide] |
| 100 | CS(=O)(=O)CCn1cc(-c2cccc(CC(=O)Nc3cc(N4CC[C@@](C#N)(C5CC5)C4=O)ccn3)c2)cn1 [Example 89, N-(4-((3S)-3-cyano-3-cyclopropyl-2-oxopyrrolidin-1-yl)pyridin-2-yl)-2-(3-(1-(2-(methylsulfonyl)ethyl)-1H-pyrazol-4-yl)phenyl)acetamide] |
| 93 | N#C[C@@]1(C2CC2)CCN(c2ccnc(NC(=O)Cc3cccc(-c4cnn(CC(C(F)(F)F)C(F)(F)F)c4)c3)c2)C1=O [Example 92, N-(4-((3S)-3-cyano-3-cyclopropyl-2-oxopyrrolidin-1-yl)pyridin-2-yl)-2-(3-(1-(3,3,3-trifluoro-2-(trifluoromethyl)propyl)-1H-pyrazol-4-yl)phenyl)acetamide] |
| 96 | N#C[C@@]1(C2CC2)CCN(c2ccnc(NC(=O)Cc3cccc(-c4cnn(CC(F)(F)C(F)(F)F)c4)c3)c2)C1=O [Example 96, N-(4-((3S)-3-cyano-3-cyclopropyl-2-oxopyrrolidin-1-yl)pyridin-2-yl)-2-(3-(1-(2,2,3,3,3-pentafluoropropyl)-1H-pyrazol-4-yl)phenyl)acetamide] |
| 57 | N#C[C@@]1(C2CC2)CCN(c2cc(NC(=O)Cc3cccc(Cl)c3)ncn2)C1=O [Example 126, 2-(3-chlorophenyl)-N-(6-((3S)-3-cyano-3-cyclopropyl-2-oxopyrrolidin-1-yl)pyrimidin-4-yl)acetamide] |
| 65 | N#C[C@@]1(C2CC2)CCN(c2cc(NC(=O)Cc3ccccc3)ncn2)C1=O [Example 127, N-(6-((3S)-3-cyano-3-cyclopropyl-2-oxopyrrolidin-1-yl)pyrimidin-4-yl)-2-phenylacetamide] |
| 95 | N#C[C@@]1(C2CC2)CCN(c2ccnc(NC(=O)Cc3cccc4ccccc34)n2)C1=O [Example 128, N-(4-((3S)-3-cyano-3-cyclopropyl-2-oxopyrrolidin-1-yl)pyrimidin-2-yl)-2-(1-naphthyl)acetamide] |
